Counter-ions that a name gives are not always drawn.
What was measured:
Assay type in all cases: biochemical
[1] = tested on: deoxyribose; assay: TBARS assay, chelants during ultrasound exposure, ferrous iron (Example 1); conditions: 0.025 mM ferrous iron, 0.03-0.04 mM chelant, 0.01% hydrogen peroxide, pH 7.5, 30 W 2 MHz 10 min
Method: (§1) The following example uses the thiobarbituric acid-reactive substances (TBARS) assay to identify chelants that enhance radical production during ultrasound exposure. All solutions were prepared in pH 7.5 phosphate buffer containing approximately 2 mM deoxyribose, 0.01% hydrogen peroxide, 0.025 mM ferrous iron, and 0.03-0.04 mM chelant. Solutions were sonicated at 30 W, 2 MHz, 32-34 degrees Celsius for ten minutes using a PZT-8 1.8 cm diameter custom transducer. The sonicated solution was placed on an orbit shaker rotating at 25 RPM to ensure even sonication of the solution while the transducer was held stationary. Control solutions were placed in a controlled temperature bath at 32-34 degrees Celsius without sonication. After 10 minutes of treatment, 1 mL test solution was placed in a test tube followed by 2 mL of 1% 2-thiobarbituric acid and 2 mL of 2.8% trichloroacetic acid. The test tube was sealed and heated to 90 degrees Celsius for 30 minutes and allowed to cool to room temperature for 20 minutes. The absorbance at 532 nm was measured. The enhanced radical production during ultrasound exposure is determined by comparing the amount of deoxyribose degradation that occurs in the sonicated solution versus the control solution using the following equation: [formula]

[2] = tested on: deoxyribose; assay: TBARS assay, chelants during ultrasound exposure, ferric iron (Example 2); conditions: 0.02-0.03 mM ferric iron, 0.04-0.05 mM chelant, 0.01% hydrogen peroxide, pH 7.5, 30 W 2 MHz 10 min
Method: as §1, with “0.02-0.03” for “0.025”, “ferric” for “ferrous”, “0.04-0.05” for “0.03-0.04”, “was” for “is”

[3] = tested on: deoxyribose; assay: TBARS assay, anti tumor antibiotics, ultrasound (Example 12); conditions: 0.005 mM ferrous iron, 0.005 mM ferric iron, 15 min
Method: The following example uses the thiobarbituric acid-reactive substances (TBARS) assay to identify anti tumor antibiotics that enhance radical production during ultrasound. All solutions are prepared in pH 7.5 phosphate buffer containing approximately 2 mM deoxyribose, 0.01% hydrogen peroxide, 0.005 mM ferrous iron, 0.005 mM ferric iron, and the additives indicated in the table below. Solutions are sonicated at 30 W, 2 MHz, 32-34 degrees Celsius for fifteen minutes using a PZT-8 1.8 cm diameter custom transducer. The sonicated solution is placed on an orbit shaker rotating at 25 RPM to ensure even sonication of the solution while the transducer is held stationary. Control solutions are placed in a controlled temperature bath at 32-34 degrees Celsius without sonication. After 15 minutes of treatment, 1 mL test solution was placed in a test tube followed by 2 mL of 1% 2-thiobarbituric acid and 2 mL of 2.8% trichloroacetic acid. The test tube is sealed and heated to 90 degrees Celsius for 30 minutes and allowed to cool to room temperature for 20 minutes. The absorbance at 532 nm is measured. The enhanced radical production during ultrasound exposure is determined by comparing the amount of deoxyribose degradation that occurs in the sonicated solution versus the control solution using the following equation: [formula]

[4] = tested on: ferritin; assay: Release of iron from ferritin assay, naphthoquinones, ultrasound (Example 8); conditions: iron release vs ultrasound without additive, 0.2 mg/mL ferritin, pH 7, 15 min
Method: The following example uses the release of iron from ferritin assay to show the effect of naphthoquinones on the release of iron from ferritin during ultrasound exposure. All solutions were prepared in pH 7 acetic acid solution containing approximately 0.2 mg/mL ferritin and 1 mM ferrozine, and the concentration of naphthoquinone indicated in the table below. Solutions were sonicated at 30 W, 2 MHz, 32-34 degrees Celsius for fifteen minutes using a PZT-8 1.8 cm diameter custom transducer. The sonicated solution was placed on an orbit shaker rotating at 25 RPM to ensure even sonication of the solution while the transducer was held stationary. Control solutions were placed in a controlled temperature bath at 32-34 degrees Celsius without sonication. After 15 minutes of treatment, an aliquot was tested for the presence of the iron-ferrozine chelate via absorbance at 562 nm. The amount of iron released was determined using the control solution corrected absorbance (subtract the absorbance of the control solution from the absorbance of the ultrasound solution). The corrected absorbance was compared to a ferrozine-iron standard curve to determine the amount of iron released. The enhanced iron release due to ultrasound exposure in the presence of the naphthoquinone was compared to the amount of enhanced iron release due to ultrasound exposure in the absence of any additives as follows: [formula]

[5] = tested on: deoxyribose; assay: TBARS assay, chelants 0.07-0.11 mM during ultrasound exposure, ferrous iron (Example 3); conditions: 0.025 mM ferrous iron, 0.07-0.11 mM chelant, 0.01% hydrogen peroxide, pH 7.5, 30 W 2 MHz 10 min
Method: as §1, with “0.07-0.11” for “0.03-0.04”, “was” for “is”

[6] = Free radical production when exposed to ultrasound and a metal (statements in the description); conditions: for free radical production: when exposed to ultrasound and a metal
[7] = tested on: deoxyribose; assay: TBARS assay, chelants 0.07-0.11 mM during ultrasound exposure, ferric iron (Example 4); conditions: 0.02-0.03 mM ferric iron, 0.07-0.11 mM chelant, 0.01% hydrogen peroxide, pH 7.5, 30 W 2 MHz 10 min
Method: as §1, with “0.02-0.03” for “0.025”, “ferric” for “ferrous”, “0.07-0.11” for “0.03-0.04”, “was” for “is”

Compound: CC(=O)N(O)CCCCCNC(=O)CCC(=O)N(O)CCCCCNC(=O)CCC(=O)N(O)CCCCCN [Desferrioxamine mesylate]
- % Ultrasound Mediated Activity vs Control [1]: 92%
- % Ultrasound Mediated Activity vs Control [2]: 81%

Compound: COC1=C(N)C(=O)c2nc(-c3nc(C(=O)O)c(C)c(-c4ccc(OC)c(OC)c4O)c3N)ccc2C1=O [Streptonigrin]
- % Ultrasound Mediated Activity vs Control ([3]; 0.025 mM additive): >100%

Compound: Cc1c(C(=O)O)c(O)cc2c1C(=O)c1c(O)c([C@@H]3O[C@H](CO)[C@@H](O)[C@H](O)[C@H]3O)c(O)c(O)c1C2=O [Carminic acid]
- % Ultrasound Mediated Activity vs Control ([3]; 0.025 mM additive): >100%

Compound: CC1=CC(=O)c2ccccc2C1=O [2-methyl-1,4-naphthoquinone (menadione), 2-methyl-1,4-naphthoquinone]
- % Ultrasound Mediated Activity ([4]; 18 uM additive): 5.3%

Compound: COc1cccc2c1C(=O)c1c(O)c3c(c(O)c1C2=O)C[C@@](O)(C(=O)CO)C[C@@H]3O[C@H]1C[C@H](N)[C@@H](O)[C@H](C)O1 [Epirubicin]
- % Ultrasound Mediated Activity vs Control ([3]; 0.1 mM additive): >100%

Compound: c1cnc2c(c1)ccc1cccnc12 [1,10 Phenanthroline]
- % Ultrasound Mediated Activity vs Control [5]: 33%

Compound: COc1cccc2c1C(=O)c1c(O)c3c(c(O)c1C2=O)C[C@@](O)(C(C)=O)C[C@@H]3O[C@H]1C[C@H](N)[C@H](O)[C@H](C)O1 [Daunomycin]
- % Ultrasound Mediated Activity vs Control ([3]; 0.1 mM additive): >100%

Compound: O=C1C=CC(=O)c2c(O)cccc21 [5-hydroxy-1,4-naphthoquinone (juglone), 5-hydroxy-1,4-naphthoquinone]
- % Ultrasound Mediated Activity ([4]; 10 uM additive): 93%

Compound: O=S([O-])[O-].[Na+].[Na+] [sodium sulfite]
- free radical production [6]: increase free radical production

Compound: Nc1ncnc2c1ncn2[C@@H]1O[C@H](COP(=O)(O)OP(=O)(O)O)[C@@H](O)[C@H]1O [Adenosine diphosphate (ADP), Adenosine diphosphate]
- % Ultrasound Mediated Activity vs Control [5]: 26%
- % Ultrasound Mediated Activity vs Control [7]: 280%
- free radical production [6]: increase free radical production

Compound: O=C(O)CN(CCN(CC(=O)O)CC(=O)O)CCN(CC(=O)O)CC(=O)O [Diethylenetriaminepentaacetic acid]
- % Ultrasound Mediated Activity vs Control [2]: 177%

Compound: COC1C(O)CC(OC2CC(Oc3cc4cc5c(c(O)c4c(O)c3C)C(=O)[C@@H](OC3CC(OC4CC(OC6CC(C)(O)C(OC(C)=O)C(C)O6)C(O)C(C)O4)C(O)C(C)O3)[C@H]([C@H](OC)C(=O)[C@@H](O)[C@@H](C)O)C5)OC(C)C2OC(C)=O)OC1C (some centres unmarked) [Chromomycin]
- % Ultrasound Mediated Activity vs Control ([3]; 0.025 mM additive): >100%

Compound: O=S(=O)(O)c1ccc(-c2nnc(-c3ccccn3)nc2-c2ccc(S(=O)(=O)O)o2)o1 [3-(2-Pyridyl)-5,6-bis(5-sulfo-2-furyl)-1,2,4-triazine]
- % Ultrasound Mediated Activity vs Control [5]: 50%
- % Ultrasound Mediated Activity vs Control [7]: 207%

Compound: O=C(O)P(=O)(O)O [phosphonoformic acid]
- radical production ([6]; added to an iron/EDTA system, ultrasound): radical production was increased

Compound: Olivomycin
- % Ultrasound Mediated Activity vs Control ([3]; 0.025 mM additive): >100%

Compound: O=C(O)c1ccccn1 [Picolinic Acid]
- % Ultrasound Mediated Activity vs Control [5]: 53%
- % Ultrasound Mediated Activity vs Control [7]: 175%

Compound: O=C(O)CC(O)(CC(=O)O)C(=O)O [Citrate]
- % Ultrasound Mediated Activity vs Control [5]: 31%
- % Ultrasound Mediated Activity vs Control [7]: 161%
- free radical production [6]: increase free radical production

Compound: O=C(O)CN(CCOCCOCCN(CC(=O)O)CC(=O)O)CC(=O)O [Ethylene glycol-bis(2-aminoethyl)-N,N,N′,N′-tetraacetic acid]
- % Ultrasound Mediated Activity vs Control [1]: 29%
- % Ultrasound Mediated Activity vs Control [2]: 520%

Compound: O=C(O)CN(CCO)CCN(CC(=O)O)CC(=O)O [N-(2-Hydroxyethyl)ethylenediamine-N,N′,N′-triacetic acid]
- % Ultrasound Mediated Activity vs Control [1]: 34%
- % Ultrasound Mediated Activity vs Control [2]: 224%

Compound: O=C(O)CN(CC(=O)O)C1CCCCC1N(CC(=O)O)CC(=O)O (centres unmarked) [Diaminocyclohexane-N,N,N′,N′-tetraacetic acid]
- % Ultrasound Mediated Activity vs Control [1]: 61%
- % Ultrasound Mediated Activity vs Control [2]: 446%

Compound: O=C(O)CN(CC(=O)O)CC(=O)O [Nitriloacetic acid]
- % Ultrasound Mediated Activity vs Control [1]: 69%
- % Ultrasound Mediated Activity vs Control [2]: 238%

Compound: O=S(=O)(O)c1ccc(-c2nnc(-c3ccccn3)nc2-c2ccc(S(=O)(=O)O)cc2)cc1 [3-(2-Pyridyl)-5,6-diphenyl-1,2,4-triazine-4,4-disulfonic acid]
- % Ultrasound Mediated Activity vs Control [5]: 45%
- % Ultrasound Mediated Activity vs Control [7]: 136%

Compound: CO[C@@]12[C@H](COC(N)=O)C3=C(C(=O)C(C)=C(N)C3=O)N1C[C@@H]1N[C@@H]12 [Mitomycin C]
- % Ultrasound Mediated Activity vs Control ([3]; 0.025 mM additive): >100%

Source: patent US20030082101A1, “Accelerators for increasing the rate of formation of free radicals and reactive oxygen species” (Cavalier Discovery, priority 2001, published 2003)
